Counter-ions that a name gives are not always drawn. Like-named read-outs stand apart in the source and are kept apart here.
How the values were obtained:
[1] = molecular target: Hco-26/27 receptor (Haemonchus contortus, UniProt A9XX30+S4VAP0); test: cell-based
Description: In order to investigate if the overlapping expression contributed to functional receptors, we co-expressed Hco-ACR-26 and Hco-ACR-27 in Xenopus laevis oocytes. We have previously reported that the functional expression of nematode muscle AChRs in Xenopus oocytes requires the addition of ancillary proteins. Therefore, cRNAs encoding the subunits Hco-ACR-26 and Hco-ACR-27, in combination with three ancillary proteins (Hco-ric-3.1, Hco-unc-74 and Hco-unc-50) were co-injected into Xenopus oocytes. […] Subsequently, different cRNA combinations were injected into Xenopus oocytes in order to determine the minimal subunit combination leading to the expression of a functional receptor and verify the ancillary factor requirement.
The subunit stoichiometry has been previously reported to impact the pharmacological properties of some nematode AChRs expressed in Xenopus oocytes.
(§1) H. contortus and P. equorum acr-26 and acr-27 cDNAs were PCR-amplified using primers containing a restriction site in order to be sub-cloned into the expression vector pTB207 that is suitable for in vitro transcription. Primers are listed in S3 Table. The resulting plasmids were linearized with the NheI restriction enzyme (Fermantas) and used as templates for cRNA synthesis using the T7 mMessage mMachine kit (Ambion). Xenopus laevis ovaries were obtained from the University of Rennes, France (CRB Xenope) and defolliculated using 2 mg/ml collagenase type II (Gibco) in the incubation solution containing: 100 mM NaCl, 2 mM KCl, 1.8 mM CaCl2.2H2O, 1 mM MgCl2.6H2O, 5 mM HEPES, 2.5 mM C3H3NaO3, pH 7.5, supplemented with penicillin 100 U/mL and streptomycin 100 μg/mL). The oocytes were injected in the animal pole with a total volume of 36 nL of cRNA mix containing 50 ng/μL of each cRNA in RNase-free water using the Drummond nanoject II microinjector. Microinjected oocytes were kept at 20°C in incubation medium for 4 days to allow the receptors expression. Two-electrode voltage-clamp recordings were carried out using an Oocyte Clamp OC-725C amplifier (Warner instrument) in oocytes being voltage-clamped at -60mV. All agonist preparations were prepared with recording buffer (100 mM NaCl, 2.5 mM KCl, 1 mM CaCl2.2H2O, 5 mM HEPES, pH 7.3). Currents were recorded and analyzed using the pCLAMP 10.4 package (Molecular Devices).

[2] = molecular target: Peq-26/27 receptor (Parascaris equorum, UniProt A0A0U2ES47+A0A0U2ES58); test: cell-based
Method: In order to determine if ACR-26 and ACR-27 subunits from other parasitic nematodes species could also form functional receptors when expressed in Xenopus oocyte, Peq-acr-26 and Peq-acr-27 cRNAs from the distantly related P. equorum (Clade III) were co-injected in combination with Hco-ric-3.1, Hco-unc-74 and Hco-unc-50 cRNAs. Four days after injection, we observed robust expression of a functional AChR responding to 100 μM ACh (Fig 6B). […] This novel heteropentameric AChR was named Peq-26/27.
as §1

[3] = 100 μM agonist, normalized to 100 μM ACh current, equal subunit ratio
[4] = read-out: Relative maximal current (Imax) normalized to 100 μM acetylcholine, cRNA ratio 1:1 26/27, 100 μM agonist

Sequence of Hco-26/27 receptor (A9XX30 entry or part of it): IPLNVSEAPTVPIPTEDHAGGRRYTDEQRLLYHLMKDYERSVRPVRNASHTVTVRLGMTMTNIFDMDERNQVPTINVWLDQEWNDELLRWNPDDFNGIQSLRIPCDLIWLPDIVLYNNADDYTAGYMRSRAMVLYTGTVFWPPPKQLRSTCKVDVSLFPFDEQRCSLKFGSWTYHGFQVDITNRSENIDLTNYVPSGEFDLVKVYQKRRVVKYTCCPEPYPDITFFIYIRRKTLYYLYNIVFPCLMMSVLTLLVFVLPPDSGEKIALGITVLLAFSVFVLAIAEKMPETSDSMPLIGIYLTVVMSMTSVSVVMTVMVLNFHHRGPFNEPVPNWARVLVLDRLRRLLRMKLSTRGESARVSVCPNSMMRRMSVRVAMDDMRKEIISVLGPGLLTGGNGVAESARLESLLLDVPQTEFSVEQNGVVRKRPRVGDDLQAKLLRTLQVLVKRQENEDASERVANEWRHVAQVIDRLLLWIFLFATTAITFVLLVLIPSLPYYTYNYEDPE
Sequence of Hco-26/27 receptor (S4VAP0 entry or part of it): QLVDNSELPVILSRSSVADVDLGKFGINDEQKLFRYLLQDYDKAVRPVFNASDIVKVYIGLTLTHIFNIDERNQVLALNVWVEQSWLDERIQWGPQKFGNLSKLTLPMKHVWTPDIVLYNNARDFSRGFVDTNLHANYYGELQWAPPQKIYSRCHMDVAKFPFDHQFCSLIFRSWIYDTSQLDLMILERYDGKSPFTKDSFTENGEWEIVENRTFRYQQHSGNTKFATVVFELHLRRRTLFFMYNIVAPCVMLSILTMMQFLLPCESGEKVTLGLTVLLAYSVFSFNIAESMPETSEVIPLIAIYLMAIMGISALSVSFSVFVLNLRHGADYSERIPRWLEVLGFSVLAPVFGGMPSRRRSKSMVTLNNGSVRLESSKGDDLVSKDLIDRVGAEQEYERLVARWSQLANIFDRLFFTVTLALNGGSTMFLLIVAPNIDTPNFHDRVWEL
Sequence of Peq-26/27 receptor (A0A0U2ES58 entry or part of it): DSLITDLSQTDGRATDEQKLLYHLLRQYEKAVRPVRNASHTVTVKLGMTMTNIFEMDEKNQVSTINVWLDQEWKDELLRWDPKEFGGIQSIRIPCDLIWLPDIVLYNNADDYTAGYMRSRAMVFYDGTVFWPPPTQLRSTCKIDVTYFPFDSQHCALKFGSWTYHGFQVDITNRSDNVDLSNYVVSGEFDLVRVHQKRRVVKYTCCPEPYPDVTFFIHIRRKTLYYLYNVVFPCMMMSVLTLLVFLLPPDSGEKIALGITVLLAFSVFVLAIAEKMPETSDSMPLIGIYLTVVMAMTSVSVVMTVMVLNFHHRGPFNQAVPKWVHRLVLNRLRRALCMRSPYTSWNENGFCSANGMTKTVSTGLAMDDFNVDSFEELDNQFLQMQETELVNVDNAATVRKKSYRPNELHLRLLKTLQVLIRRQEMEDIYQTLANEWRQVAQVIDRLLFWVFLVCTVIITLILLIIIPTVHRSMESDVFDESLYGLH
Sequence of Peq-26/27 receptor (A0A0U2ES47 entry or part of it): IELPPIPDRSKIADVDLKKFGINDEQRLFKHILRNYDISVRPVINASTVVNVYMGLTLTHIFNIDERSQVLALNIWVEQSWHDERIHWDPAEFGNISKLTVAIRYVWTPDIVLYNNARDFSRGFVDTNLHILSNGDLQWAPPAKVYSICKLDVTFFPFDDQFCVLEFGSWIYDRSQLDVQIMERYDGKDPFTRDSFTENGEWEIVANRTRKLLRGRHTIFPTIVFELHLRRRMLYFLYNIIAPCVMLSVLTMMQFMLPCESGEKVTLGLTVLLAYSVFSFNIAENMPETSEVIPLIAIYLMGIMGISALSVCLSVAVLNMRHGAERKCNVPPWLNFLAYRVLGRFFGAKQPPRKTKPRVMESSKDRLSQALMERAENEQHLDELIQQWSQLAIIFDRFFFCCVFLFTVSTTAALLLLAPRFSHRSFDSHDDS

## CC(=O)OCC[N+](C)(C)C [ACh, Acetylcholine chloride]
[1]
  EC50: 80.1 ± 1.1 µM
[1]; cRNA ratio 1:1 26/27, 100 μM agonist, read-out: Relative maximal current (Imax) normalized to 100 μM acetylcholine
  Emax at 100 µM: 100%
[1]; cRNA ratio 1:5 26/27, 100 μM agonist, read-out: Relative maximal current (Imax) normalized to 100 μM acetylcholine
  Emax at 100 µM: 100%
[1]; cRNA ratio 5:1 26/27, 100 μM agonist, read-out: Relative maximal current (Imax) normalized to 100 μM acetylcholine
  Emax at 100 µM: 100%
[2]
  EC50: 34.9 ± 1.1 µM

## C[N+](C)(CCOc1ccccc1)Cc1ccccc1 [Beph, bephenium]
[1]; [3]
  Current elicited, % of ACh response: insensitive
[1]; [4]
  Emax at 100 µM: 3.21 ± 1.61%
[1]; read-out: Relative maximal current (Imax) normalized to 100 μM acetylcholine, cRNA ratio 1:5 26/27, 100 μM agonist
  Emax at 100 µM: 2.26 ± 2.26%

## CN1CCC[C@H]1c1cccnc1 [Nic, (-)-nicotine hydrogen tartrate]
[1]
  Current elicited, % of ACh response: insensitive
[2]; 100 μM agonist, normalized to 100 μM ACh current
  Current elicited, % of ACh response: insensitive

## CN1CCCN=C1/C=C/c1cccc(O)c1 [Oxa, oxantel]
[1]; [3]
  Current elicited, % of ACh response: insensitive
[1]; [4]
  Emax at 100 µM: 0.95 ± 0.95%

Reference: publication PMC4666645 (PLoS Pathogens, 2015)
